Tests used:
HNSCC and NSCLC CAF = experiment: Established myoCAF phenotype of CAF cultured ex vivo; type: cell-based, human
Protocol: Human NSCLC cell line H441, HNSCC SCC25, murine cancer cell line TC-1 (lung), MC38 (colon) and human fetal foreskin fibroblasts HFFF2 were purchased from European Collection of Cell Cultures (Public Health England) or ATCC; HNSCC 5PT [32] were provided by l. Mackenzie (Queen Mary University of London, UK). HEK-293T cells and IMR90 lung fibroblasts were provided by Jesus Gil (Imperial College, London, UK). SCC25 were grown in Ham's F12:DMEM (1:1 ratio) medium with 10% FBS (Calbiochem) and 292 μg/ml L-Glutamine. 5PT were cultured in keratinocyte growth medium. HEK-293T, H441, MC38, HFFF2, IMR90 and primary fibroblasts were grown in DMEM supplemented with 10% FBS and 292 μg/ml L-Glutamine. Primary fibroblasts were isolated as previously used at early passage (p1-10). C57BL/6 murine normal lung and colon fibroblasts (MLF and MCF respectively) were grown at 3% oxygen. TC-1 were cultured in RPMI supplemented with 10% FBS and 292 μg/ml L-Glutamine. All cell cultures were routinely tested for mycoplasma contamination. All cells were cultured using standard cell culture plates/flasks (Corning). HFFF2 or IMR90 cells were transfected with 25 μM On-Target pool siRNA (Thermo Scientific/Dharmacon) using Oligofectamine reagent (Life Technologies) as described. Stable knockdown was performed using retro/lentiviral mediated transduction of shRNA plasmids, as previously described followed by cell selection using 1 μg/ml puromycin for 5-7 days. NOX4-inducible HEK-293 cells (kindly provided by Vincent Jaquet) were treated with 1 μg/ml doxycycline. Wild type and mutant (C2991L) ATM over-expression was carried out transfecting HFFF2 with Viafect (Promega) according to manufacturer's instructions and selected for 10 days with 4 mg/ml G418. p-Retrosuper-shATM (ATM #1:912) and pCDNA3.1-Flag-mut-ATM (C2991L; pTP1625 clone) were kindly provided by Yosef Shiloh and Tanya Paull respectively. pLKO.1 murine shATM (TRCN0000012643) and pCDNA3.1-Flag-wt-ATM (31985) were purchased from Sigma and Addgene respectively. 2 ng/ml TGF-3 (TGF-β1; R&D Systems; for 3 days) was used to induce myofibroblast differentiation. 10 ng/ml IL-1pR (R&D Systems) for 72 hours was used to induce iCAF differentiation. […] All the inhibitors were resuspended in DMSO. To trigger DDR activation and/or cell stress HFFF2 were either irradiated with 2-100Gy using 350Kv X-Ray Irradiation System (Faxitron), or treated with 100 ng/ml Neocarzinostatin for 2 hours (NCS; Sigma), with 2-10 mM H2O2(Fisher Scientific) or with 5 μg/ml Cisplatin (Sandoz) for 30 minutes.
Cells were lysed in ice-cold RIPA buffer [1% NP40, 150 mM NaCl, 25 mM Tris-HCl pH 7.5, 0.1% SDS, 1% Na-Deoxycolate, 1 mM EGTA, 1 mM EDTA, 1 mM Na-orthovanadate, 10 mM Na-fluoride, 2.5 mM Na-pyrophosphate, 1 mM p glycerophosphate+freshly added 1 mM PMSF, 20 mM N-Ethylmaleimide (NEM), 10 ng/ml Microcystin-LR, 0.12 μM Okadaic acid and phosphatase and protease inhibitor cocktails; all from Sigma]. Protein extracts were then centrifuged and supernatants quantified using Dc-Bio-Rad protein assay kit (Bio-Rad laboratories) as previously. For nuclear-cytoplasmic protein extraction, the inventors used NE-PER Reagents according to manufacturer's instructions (Thermofisher). Equal amounts of protein were electrophoresed either in reducing (+Dithiothreitol, DTT) or in non-reducing conditions in 3-8% or 4-12% SDS-PAGE gels and electro blotted as previously.

[1] = monotherapy, dose escalation phase 1; cited from earlier work

Compound: CN(C)CCCOc1ccc(-c2ccc3ncc4c(c3c2)n(C2CCOCC2)c(=O)n4C)cn1 [AZD0156]
- myoCAF differentiation (reversal) (HNSCC and NSCLC CAF; CAF E treated with AZD0156 for 5 days, Q-RT-PCR): reversed
- reversal of myoCAF differentiation after AZD0156 treatment was discontinued (HNSCC and NSCLC CAF; CAF E, 5 days AZD0156 then further 5 days without AZD0156): maintained
- adverse effects [1]: not yet reporting to be associated with adverse effects

Source: patent US20260256799A1, “INHIBITORS FOR TREATING SOLID TUMOURS” (UNIVERSITY OF SOUTHAMPTON, priority 2023, published 2026)
